Data published in PMC9516332 (Frontiers in Oncology, 2022).
Where two headings read alike, the source gives them in different places.

Assays:
134 cancer cell lines = experiment: Cell viability assay (ATPlite, 72 hours), IC50 on cancer cell line panel
[1] = target: T1, panel of 255 wild-type kinases (Homo sapiens, UniProt Q8IW41); experiment: Kinase panel profiling at 1 µmol/L (MSA or IMAP), percentage inhibition; type: biochemical; details: MAPKAPK5; 1 µmol/L single concentration; read-out: %-inhibition, MAPKAPK5
T1 sequence (Q8IW41 1-473): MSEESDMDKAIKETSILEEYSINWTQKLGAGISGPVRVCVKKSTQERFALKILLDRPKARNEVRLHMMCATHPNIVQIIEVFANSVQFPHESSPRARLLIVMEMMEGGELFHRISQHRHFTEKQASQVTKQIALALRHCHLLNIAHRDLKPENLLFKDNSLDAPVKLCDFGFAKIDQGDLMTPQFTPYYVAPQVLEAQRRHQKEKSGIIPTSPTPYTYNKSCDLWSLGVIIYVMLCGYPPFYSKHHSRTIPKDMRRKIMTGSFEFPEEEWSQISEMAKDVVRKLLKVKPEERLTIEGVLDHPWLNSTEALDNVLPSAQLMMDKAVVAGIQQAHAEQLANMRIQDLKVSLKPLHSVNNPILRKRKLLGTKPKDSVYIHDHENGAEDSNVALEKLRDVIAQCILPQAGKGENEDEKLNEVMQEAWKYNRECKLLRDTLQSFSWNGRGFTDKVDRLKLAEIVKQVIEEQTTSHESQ

[2] = target: panel of 255 wild-type kinases (Homo sapiens, UniProt P45983); experiment: as above; type: biochemical; details: kinase JNK1; 1 µmol/L single concentration; read-out: %-inhibition at 1 µmol/L, JNK1

IC50 (134 cancer cell lines; Homo sapiens, MV4-11, read-out: IC50 in cell proliferation assay, MV4-11 cell line (FLT3 ITD)): 19.1 µM
IC50 (134 cancer cell lines; Homo sapiens, MeWo, read-out: IC50 in cell proliferation assay, MeWo cell line): > 31.6 µM
IC50 (134 cancer cell lines; Homo sapiens, NCCIT, read-out: IC50 in cell proliferation assay, NCC-IT cell line): > 31.6 µM
IC50 (134 cancer cell lines; Homo sapiens, NCI-H82, read-out: IC50 in cell proliferation assay, cell line NCI-H82): 20.4 µM
IC50 (134 cancer cell lines; Homo sapiens, NCI-H460, read-out: IC50 in cell proliferation assay, NCI-H460 cell line): 30.4 µM
IC50 (134 cancer cell lines; Homo sapiens, NCI-H661, read-out: IC50 in cell proliferation assay, NCI-H661 cell line): 26.9 µM
IC50 (134 cancer cell lines; Homo sapiens, NCI-H716, read-out: IC50 in cell proliferation assay, cell line NCI-H716 (FGFR2-COL14A1)): 29.5 µM
IC50 (134 cancer cell lines; Homo sapiens, NCI-H1650, read-out: IC50 in cell proliferation assay, NCI-H1650 cell line (EGFR exon19del)): > 31.6 µM
IC50 (134 cancer cell lines; Homo sapiens, NCI-H1975, read-out: IC50 in cell proliferation assay, NCI-H1975 cell line (EGFR p.L858R + p.T790M)): 24.5 µM
IC50 (134 cancer cell lines; Homo sapiens, NCI-H2228, read-out: IC50 in cell proliferation assay, NCI-H2228 cell line (EML4-ALK)): > 31.6 µM
IC50 (134 cancer cell lines; Homo sapiens, OVCAR-3, read-out: IC50 in cell proliferation assay, cell line OVCAR-3): > 31.6 µM
IC50 (134 cancer cell lines; Homo sapiens, PFSK-1, read-out: IC50 in cell proliferation assay, cell line PFSK-1): 19 µM
IC50 (134 cancer cell lines; Homo sapiens, RL95-2, read-out: IC50 in cell proliferation assay, cell line RL95-2 (EGFR p.A289V)): 1.76 µM
IC50 (134 cancer cell lines; Homo sapiens, RPMI-7951, read-out: IC50 in cell proliferation assay, cell line RPMI-7951 (BRAF p.V600E)): 15.8 µM
IC50 (134 cancer cell lines; Homo sapiens, RS4-11, read-out: IC50 in cell proliferation assay, cell line RS4;11): 24.4 µM
IC50 (134 cancer cell lines; Homo sapiens, Rec1, read-out: IC50 in cell proliferation assay, cell line REC-1): 12 µM
IC50 (134 cancer cell lines; Homo sapiens, SHP77, read-out: IC50 in cell proliferation assay, cell line SHP-77): 22.8 µM
IC50 (134 cancer cell lines; Homo sapiens, SK-BR-3, read-out: IC50 in cell proliferation assay, cell line SK-BR-3 (ERBB2 amplification)): 0.022 µM
IC50 (134 cancer cell lines; Homo sapiens, SK-N-AS, read-out: IC50 in cell proliferation assay, cell line SK-N-AS): 25.2 µM
IC50 (134 cancer cell lines; Homo sapiens, SK-N-FI, read-out: IC50 in cell proliferation assay, cell line SK-N-FI): > 31.6 µM
IC50 (134 cancer cell lines; Homo sapiens, SK-N-MC, read-out: IC50 in cell proliferation assay, cell line SK-N-MC): 15.1 µM
IC50 (134 cancer cell lines; Homo sapiens, SK-N-SH, read-out: IC50 in cell proliferation assay, cell line SK-N-SH (ALK p.F1174L)): 24.9 µM
IC50 (134 cancer cell lines; Homo sapiens, SNU-5, read-out: IC50 in cell proliferation assay, cell line SNU-5 (MET amplification)): 24.6 µM
IC50 (134 cancer cell lines; Homo sapiens, SNU-16, read-out: IC50 in cell proliferation assay, cell line SNU-16 (FGFR2 amplification)): 20.5 µM
IC50 (134 cancer cell lines; Homo sapiens, SNU-C2B, read-out: IC50 in cell proliferation assay, cell line SNU-C2B (EGFR p.R165Q)): > 31.6 µM
IC50 (134 cancer cell lines; Homo sapiens, SU-DHL-1, read-out: IC50 in cell proliferation assay, cell line SU-DHL-1 (NPM1-ALK)): 15.7 µM
IC50 (134 cancer cell lines; Homo sapiens, SU-DHL-6, read-out: IC50 in cell proliferation assay, cell line SU-DHL-6): 15.3 µM
IC50 (134 cancer cell lines; Homo sapiens, SUP-T1, read-out: IC50 in cell proliferation assay, cell line SUP-T1): > 31.6 µM
IC50 (134 cancer cell lines; Homo sapiens, SW48, read-out: IC50 in cell proliferation assay, cell line SW48 (EGFR p.G719S)): 17.4 µM
IC50 (134 cancer cell lines; Homo sapiens, SW480, read-out: IC50 in cell proliferation assay, cell line SW480): > 31.6 µM
IC50 (134 cancer cell lines; Homo sapiens, SW626, read-out: IC50 in cell proliferation assay, cell line SW626): 23.5 µM
IC50 (134 cancer cell lines; Homo sapiens, SW780, read-out: IC50 in cell proliferation assay, cell line SW780 (FGFR3-BAIAP2L1)): 22.7 µM
IC50 (134 cancer cell lines; Homo sapiens, SW837, read-out: IC50 in cell proliferation assay, cell line SW837): > 31.6 µM
IC50 (134 cancer cell lines; Homo sapiens, SW872, read-out: IC50 in cell proliferation assay, cell line SW872 (BRAF p.V600E)): 31.4 µM
IC50 (134 cancer cell lines; Homo sapiens, SW900, read-out: IC50 in cell proliferation assay, cell line SW900): > 31.6 µM
IC50 (134 cancer cell lines; Homo sapiens, SW948, read-out: IC50 in cell proliferation assay, cell line SW948): > 31.6 µM
IC50 (134 cancer cell lines; Homo sapiens, SW982, read-out: IC50 in cell proliferation assay, cell line SW982 (BRAF p.V600E)): > 31.6 µM
IC50 (134 cancer cell lines; Homo sapiens, SW-620, read-out: IC50 in cell proliferation assay, cell line SW620): > 31.6 µM
IC50 (134 cancer cell lines; Homo sapiens, T98G, read-out: IC50 in cell proliferation assay, cell line T98G): 30.1 µM
IC50 (134 cancer cell lines; Homo sapiens, TCC-SUP, read-out: IC50 in cell proliferation assay, cell line TCCSUP): 30.4 µM
IC50 (134 cancer cell lines; Homo sapiens, THP-1, read-out: IC50 in cell proliferation assay, cell line THP-1): > 31.6 µM
IC50 (134 cancer cell lines; Homo sapiens, U2OS, read-out: IC50 in cell proliferation assay, cell line U2OS): 22.1 µM
IC50 (134 cancer cell lines; Homo sapiens, U-87 MG, read-out: IC50 in cell proliferation assay, cell line U-87MG ATCC): > 31.6 µM
IC50 (134 cancer cell lines; Homo sapiens, U-118-MG, read-out: IC50 in cell proliferation assay, cell line U-118MG): 25 µM
IC50 (134 cancer cell lines; Homo sapiens, UMUC3, read-out: IC50 in cell proliferation assay, cell line UM-UC-3): 8.4 µM
IC50 (134 cancer cell lines; Hs766T, read-out: IC50 in cell proliferation assay, Hs 766T cell line): > 31.6 µM
IC50 (134 cancer cell lines; L-82, read-out: IC50 in cell proliferation assay, L-82 cell line (NPM1-ALK)): > 31.6 µM
IC50 (134 cancer cell lines; Rh30, read-out: IC50 in cell proliferation assay, cell line Rh30): 25.8 µM
IC50 (134 cancer cell lines; read-out: IC50 in cell proliferation assay, 11-18 cell line (EGFR p.L858R)): 0.825 µM
IC50 (134 cancer cell lines; read-out: IC50 in cell proliferation assay, Hs 852.T cell line): > 31.6 µM
IC50 (134 cancer cell lines; read-out: IC50 in cell proliferation assay, JAR cell line): 24.1 µM
IC50 (134 cancer cell lines; read-out: IC50 in cell proliferation assay, cell line 5637): 8.88 µM
IC50 (134 cancer cell lines; read-out: IC50 in cell proliferation assay, cell line A-388): 15.9 µM
IC50 (134 cancer cell lines; read-out: IC50 in cell proliferation assay, cell line DB): 19.2 µM
IC50 (134 cancer cell lines; read-out: IC50 in cell proliferation assay, cell line DEL (NPM1-ALK)): > 31.6 µM
IC50 (134 cancer cell lines; read-out: IC50 in cell proliferation assay, cell line ES-2 (BRAF p.V600E)): 18.4 µM
IC50 (134 cancer cell lines; read-out: IC50 in cell proliferation assay, cell line PA-1): 21.1 µM
IC50 (134 cancer cell lines; read-out: IC50 in cell proliferation assay, cell line PC-3): 26.8 µM
IC50 (134 cancer cell lines; read-out: IC50 in cell proliferation assay, cell line RD): 28.8 µM
IC50 (134 cancer cell lines; read-out: IC50 in cell proliferation assay, cell line RKO (BRAF p.V600E)): 13.1 µM
IC50 (134 cancer cell lines; read-out: IC50 in cell proliferation assay, cell line RL): 24 µM
IC50 (134 cancer cell lines; read-out: IC50 in cell proliferation assay, cell line RT-4 (FGFR3-TACC3)): 9.99 µM
IC50 (134 cancer cell lines; read-out: IC50 in cell proliferation assay, cell line SR (NPM1-ALK)): 16.8 µM
IC50 (134 cancer cell lines; read-out: IC50 in cell proliferation assay, cell line T24): 20.1 µM
IC50 (134 cancer cell lines; read-out: IC50 in cell proliferation assay, cell line TT (RET p.C634W)): > 31.6 µM
IC50 (134 cancer cell lines; read-out: IC50 in cell proliferation assay, cell line VA-ES-BJ): 25.9 µM
inhibition at 1 µM [1]: 2%
inhibition at 1 µM [2]: -3.72%
Compound: Cc1cc(Nc2ncnc3ccc(NC4=NC(C)(C)CO4)cc23)ccc1Oc1ccn2ncnc2c1 [tucatinib]
